Test results reported in paper PMC6943612, “Investigation of Anti-Inflammatory Potential of N-Arylcinnamamide Derivatives” (Molecules, 2019).

Key:
MAPKs (p38, ERK1/2, JNK) = test: Signaling pathway analysis (Western blot): phosphorylated MAPKs; format: cell-based; details: 2 µM, 30 min after LPS 1 µg/mL
Method: (§1) The level of IĸB and the amount of activated (phosphorylated) mitogen-activated protein (MAP) kinase p38, ERK1/2, and JNK was determined on the THP1-Blue™ NF-κB, in a way similar to that described previously. Briefly, cells cultivated in serum-free medium were pretreated with the tested compounds (8, 17, cinnamic acid, or prednisone) at concentration 2 µM. One hour later, 1 µg/mL of LPS was added, and after 30 min the cells were collected into ice-cold Mammalian Cell Lysis Buffer (Abcam, Cambridge, UK) with phosphatase inhibitors PhosSTOP (Roche, Mannheim, Germany). Cell lysates were centrifuged 3000 g/5 min/4 °C and supernatants were mixed with 5× Laemmli reducing buffer [250 mM Tris-HCl pH 6.8, 10% (w/v) SDS, 30% (v/v) glycerol, 5% (v/v) β-mercaptolethanol, 0.04% (w/v) bromphenol blue], and incubated at 95 °C for 5 min. […] The membranes were incubated at 4 °C for 16 h with primary anti-IĸB-α (Cell Signaling; product No. 4814; dilution 1:1,000), anti-p44/42 MAPK (ERK1/2) (Cell Signaling; product No. 9102; dilution 1:1,000), anti-phospho-p44/42 MAPK (ERK1/2) (Cell Signaling; product No. 9101; dilution 1:1,000), anti-JNK1/2/3 (Abcam; product No. ab179461; dilution 1:1,000), anti-phosho-JNK1/2/3 (Abcam; product No. ab76572; dilution 1:5,000), anti-p38 MAPK (Cell Signaling; product No. 8690; dilution 1:1,000), anti-phospho-p38 MAPK (Cell Signaling; product No. 9210; dilution 1:1,000), and anti-β-actin (Santa Cruz, Aachen, Germany; product No. sc-47778; dilution 1:5000) antibodies. […] The amount of bound secondary antibody was determined using WesternSure® PREMIUM Chemiluminescent Substrate (LI-COR, Lincoln, NE, USA). Chemiluminescence was detected using a LI-COR C-DiGit chemiluminescence imaging system (LI-COR).
(§2) Figure 6 Effect of N-arylcinnamamide derivatives on the activation of MAPKs. […] Cells were collected 30 min after LPS stimulation and selected proteins were detected by Western blot and immunodetection.

[1] = system: transcription factor NF-κB; test: Determination of LPS-induced NF-κB activity (Quanti-Blue, SEAP reporter); format: cell-based; details: for inhibition at 2 µM: concentration of compounds 2 µM; for inhibition at 2 µM / inhibition at 0.5 µM: LPS 1 µg/mL, 24 h; for inhibitory effect on NF-κB activity compared with prednisone (in words): 2 µM, same concentration as prednisone; for inhibition at 0.5 µM: concentration of compounds 0.5 µM
Method: The activity of NF-κB transcription factors was evaluated on THP1-Blue™ NF-κB cells as described previously. […] After 24 h of incubation, 20 µL of cultivation medium was mixed with 200 µL of Quanti-Blue™ medium (Invivogen) and incubated according to the manufacturer’s instructions at 37 °C for 30–40 min. The activity of NF-κB was determined as secretion of embryonic alkaline phosphatase spectrophotometrically in a Tecan Infinite M200 (Tecan, Männedorf Switzerland) at 650 nm and compared with an untreated control (100%).
Figure 3 Effect of the tested compounds on the activity of transcription factor NF-κB. THP1-Blue™ NF-κB cells were pretreated by compounds (2 µM; or 0.5 µM for 10, 11, and 13) or prednisone (PDS; 2 µM) dissolved in DMSO at indicated concentrations for 1 h. Then, lipopolysaccharide (LPS) 1 µg/mL was added to trigger the NF-κB activation. The activity of NF-κB was measured 24 h after LPS stimulation using QuantiBlue™ assay. Graph represents mean ± SEM. Red dotted line show value of DMSO-only treated group, azur dotted line CA treated group, and blue dotted line PDS treated group. ** indicates statistical significance (p < 0.01) to DMSO group; *** indicates statistical significance (p < 0.001) to DMSO group **** indicates statistical significance (p < 0.0001) to DMSO group.

IκBα = test: Signaling pathway analysis (Western blot): IκBα level; format: cell-based; details: 2 µM, 30 min after LPS 1 µg/mL
Method: as §1, §2

THP1-Blue™ NF-κB cells = test: Cell viability determination (WST-1), 24 h; format: cell-based; details: WST-1, 24 h incubation, serum-free medium, three independent measurements; read-out: IC50 ± SEM, viability of THP1-Blue™ NF-κB cell line
Method: The cell viability was determined as was described previously. […] The final concentration of DMSO was 0.1% (v/v) in each well. Measurements were taken after 24 h incubation with the tested substances. Viability was measured by the Cell Proliferation Reagent kit WST-1 (Roche Diagnostics, Basel, Switzerland) according to the manufacturer’s manual. […] The IC50 values were calculated by four-parameter logistic (4PL) analysis from obtained viability curves.

TNF-α = TNF-α secretion by LPS-stimulated PMA-differentiated THP1-Blue™ NF-κB macrophages (ELISA); format: cell-based, Human; details: 2 µM, LPS 1 µg/mL, 24 h
Method: Differentiated THP1-Blue™ NF-κB macrophages (see the chapter 3.6) were pre-treated for 1 h with 2 µM solutions of the tested compounds 8, 12, 6, 17, cinnamic acid, and prednisone dissolved in DMSO, or only the vehicle [0.1% (v/v) […] solution]. The inflammatory-like response was triggered by adding 1 μg/mL of LPS from E. coli 0111:B4 (Sigma-Aldrich) to the pre-treated macrophages; the control cells were left without LPS treatment. After 24 h, the supernatants were collected and the concentration of TNF-α was measured using a Human TNF-α ELISA Kit (Diaclone, Besançon, France), according to the manufacturer’s manual.
Figure 7 Effect of N-arylcinnamamide derivatives on the secretion of TNF-α. THP1-Blue™ NF-κB cells were differentiated to macrophages by PMA. Such cells were pretreated by compounds or PDS (2 µM) for 1 h, then LPS (1 µg/mL) was added to trigger the inflammatory signalization. Cultivation medium was collected 24 h after LPS stimulation, and the amount of TNF-α was measured by the ELISA technique. Graph represents mean ± SEM. * indicates statistical significance (p < 0.05) to DMSO group; ** indicates statistical significance (p < 0.01) to DMSO group **** indicates statistical significance (p < 0.0001) to DMSO group.

[2] = design: method as in PMID 30087309; details: cited from earlier work
NF-κB p65 = test: Immunocytochemical analysis of NF-κB nuclear migration; format: cell-based; details: 2 µM, 1 h after LPS 1 µg/mL, PMA-differentiated macrophages
Method: To differentiate THP1-Blue™ NF-κB monocytes into macrophages, the cells were stimulated with phorbol myristate acetate (PMA) at the final concentration of 50 ng/mL, as was described previously. Cells were seeded into 8-well cell culture glass slide (SPL, Korea) at the concentration of 500,000 cells/mL, 150,000 cells per well. The compound 17 was added at the final concentration of 2 µM, and 1 h later, the cells were activated by LPS (1 µg/mL). After 1h, the culture slide was washed with PBS and fixed with 4% formaldehyde. The cells were permeabilized by 0.1% Triton X-100 (v/v; Merck) and blocked with 3% bovine serum albumin (BSA, Merck) dissolved in PBS. The primary antibody NF-κB p65 (Abcam, Cambridge, UK; product No. ab16502) at concentration 2.5 µg/mL was used for overnight incubation at 4 °C. After that, secondary anti-rabbit antibody labeled with Alexa Fluor® 488 (Cell Signaling; product No. 4412; dilution 1:1000) was added for 1 h in dark, and the nuclei were stained using 0,5 µg/mL DAPI (Merck) for 5 min. The wells were washed three-times between the mentioned steps with PBS. The coverslip was mounted with VectaShield mounting (Vector laboratories, Burlingame, CA, USA) medium and sealed with the nail polish. The nail polish was allowed to dry at 4 °C and the translocation of NF-κB was observed by fluorescence microscopy. […]

SMILES	IC50 (THP1-Blue™ NF-κB cells) [µM]	inhibition at 2 µM [1] [%]	further results
O=C(O)/C=C/c1ccccc1 [CA, cinnamic acid, reference compound]	> 30	11.4	effect on MAPKs activity (MAPKs (p38, ERK1/2, JNK)): no effect; effect on IκBα levels (IκBα): no effect; effect on TNF-α production (in words) (TNF-α): did not affect
O=C(/C=C/c1ccccc1)Nc1cccc(C(F)(F)F)c1 [Compound 6, (2E)-3-Phenyl-N-[3-(trifluoromethyl)phenyl]prop-2-enamide]	11.6 ± 1.13	16.7	decrease of the level of TNF-α (TNF-α): 10.4%; log k [2]: 0.4859
Cc1ccc(C)c(NC(=O)/C=C/c2ccccc2)c1 [Compound 7]	> 30	14.8	
O=C(/C=C/c1ccccc1)Nc1c(Cl)cccc1Cl [Compound 9]	> 30	14.1	
O=C(/C=C/c1ccccc1)Nc1ccc(Cl)c(Cl)c1 [Compound 10]	6.28 ± 2.32		inhibition at 0.5 µM [1]: 10.9%; log k [2]: 0.6821
O=C(/C=C/c1ccccc1)Nc1c(Br)cccc1Br [Compound 12, (2E)-N-(2,6-dibromophenyl)-3-phenylprop-2-enamide]	> 30	23.1	inhibitory effect on NF-κB activity compared with prednisone (in words) [1]: comparable with prednisone; decrease of the level of TNF-α (TNF-α): 10%; effect on TNF-α production (in words) (TNF-α): decreased
O=C(/C=C/c1ccccc1)Nc1cc(C(F)(F)F)cc(C(F)(F)F)c1 [Compound 13]	2.17 ± 1.19		inhibition at 0.5 µM [1]: 19.7%; log k [2]: 0.9814
O=C(/C=C/c1ccccc1)Nc1cc(Br)ccc1F [Compound 14]	> 30	19.7	
O=C(/C=C/c1ccccc1)Nc1ccc(Br)cc1Cl [Compound 16, (2E)-N-(4-bromo-2-chlorophenyl)-3-phenylprop-2-enamide]	> 30	13.7	
COc1ccc([N+](=O)[O-])cc1NC(=O)/C=C/c1ccccc1 [Compound 18, (2E)-N-(2-methoxy-5-nitrophenyl)-3-phenylprop-2-enamide]	> 30	17.6	
C[C@]12C=CC(=O)C=C1CC[C@@H]1[C@@H]2C(=O)C[C@@]2(C)[C@H]1CC[C@]2(O)C(=O)CO [PDS, prednisone, reference compound]			decrease of the level of TNF-α (TNF-α): 70.3%

Further lines, with some results ahead:

IC50 (THP1-Blue™ NF-κB cells) [µM]	SMILES	inhibition at 2 µM [1] [%]	further results
> 30	Cc1cccc(NC(=O)/C=C/c2ccccc2)c1 [Compound 2]	9	
> 30	Cc1ccc(NC(=O)/C=C/c2ccccc2)cc1 [Compound 3]	8.5	
> 30	O=C(/C=C/c1ccccc1)Nc1cc(Cl)ccc1Cl [Compound 8, (2E)-N-(2,5-dichlorophenyl)-3-phenylprop-2-enamide]	22.5	effect on MAPKs activity (MAPKs (p38, ERK1/2, JNK)): no effect; inhibitory effect on NF-κB activity compared with prednisone (in words) [1]: comparable with prednisone; effect on IκBα levels (IκBα): no effect
2.43 ± 1.06	O=C(/C=C/c1ccccc1)Nc1cc(Cl)cc(Cl)c1 [Compound 11]		inhibition at 0.5 µM [1]: 16.2%; log k [2]: 0.8155
> 30	O=C(/C=C/c1ccccc1)Nc1cc(F)ccc1Br [Compound 15, (2E)-N-(2-bromo-5-fluorophenyl)-3-phenylprop-2-enamide]	17.8	
> 30	O=C(/C=C/c1ccccc1)Nc1cc(C(F)(F)F)ccc1Cl [Compound 17, (2E)-N-[2-Chloro-5-(trifluoromethyl)phenyl]-3-phenylprop-2-enamide]	27.1	effect on MAPKs activity (MAPKs (p38, ERK1/2, JNK)): no effect; inhibitory effect on NF-κB activity compared with prednisone (in words) [1]: comparable with prednisone; effect on IκBα levels (IκBα): no effect; decrease of the level of TNF-α (TNF-α): 12.4%; effect on TNF-α production (in words) (TNF-α): decreased; nuclear translocation of NF-κB after LPS stimulation (NF-κB p65): slightly affected
